Reference: article PMC12040169 (PLOS Biology, 2025)

Assay: in vitro
Details: human, hela cells, % viability

Row | SMILES | viability at 28.5 h, 10 µM
1 | O=C(CC1CCN(C(=O)CC2CCCCC2)CC1)NCc1ccccc1N1CCCC1 [CBK285962] | 99.2%
2 | CCCC(=O)NC1CCN(C(=O)c2snnc2CC)CC1 [CBK297744] | 97.3%
3 | O=S(=O)(NCCSCc1ccco1)c1ccc(Cl)cc1 [CBK232206] | 85.6%
4 | Cc1ccc(S(=O)(=O)Nc2nccnc2-c2ccc(Cc3nnn[nH]3)cc2)cc1 [CBK073841] | 96.9%
5 | CCCNC(=O)C[C@@H]1CCN(C(=O)c2ccnc(Cl)c2)C[C@@H]1CC [CBK289138] | 99.3%
6 | Cc1ccccc1C(=O)NCCNC(=O)c1nonc1N [CBK267677] | 103%
7 | COCc1cc(O)nc(Cc2c(Cl)cccc2Cl)n1 [CBK022389] | 96.7%
8 | O=C(CCn1c(C(F)F)cc2cccnc21)NC1CCCCC1 [CBK285064] | 92.1%
9 | O=C(CSCc1nc(O)c2c3c(sc2n1)CCCC3)Nc1ccc(F)cc1 [CBK265568] | 106%
10 | Cc1cccc2c1CC(=O)NC21CCN(Cc2ccccc2)CC1 [CBK039819] | 87%
11 | CC(C)N(C(=O)Cn1c(C(F)F)cc2cccnc21)C(C)C [CBK285009] | 100%
12 | O=C(O)COc1ccc(N2C(=O)c3ccc(-c4nc5ccccc5c(=O)o4)cc3C2=O)cc1 [CBK265659] | 106%
13 | COc1ccc(N2CCN(CC(O)c3c[nH]c4cc(OC)ccc34)CC2)cc1 (centres unmarked) [CBK286355] | 96.1%
14 | CCSc1ccc(-c2cc(N(C)c3cccc(C)c3)n3nccc3n2)cc1 [CBK037115] | 100%
15 | c1ccc2c(-c3cn4ccnc4c(Nc4ccc5cn[nH]c5c4)n3)cccc2c1 [CBK066346] | 88%
16 | COc1ccc(-c2nc(NS(C)(=O)=O)cc3cccnc23)cc1C [CBK085677] | 85.5%
17 | Cc1n[nH]c(=O)c2noc(C)c12 [CBK000857] | 108%
18 | COc1ccc(S(=O)(=O)NC(CCSC)c2nnc3ccccn23)cc1 (centres unmarked) [CBK304402] | 109%
19 | C/C=N\n1c(CO)nnc1CO [CBK034325] | 86.5%
20 | Cc1noc(C)c1C(=O)N1CCN(Cc2ccco2)C[C@@H]1C(C)C [CBK284248] | 93.9%
21 | COc1ccc2[nH]cc(CC(=O)N3CCCC4(CCN(C(=O)c5ccc(OC)c(OC)c5)C4)C3)c2c1 (centres unmarked) [CBK131666] | 81.1%
22 | O=[N+]([O-])c1ccc(NCCCNS(=O)(=O)c2ccc(Cl)cc2)c(Cl)c1 [CBK262543] | 90.6%

Row | SMILES | viability at 28.5 h, 10 µM
23 | CN(C)CCOc1ncccc1OCCO [CBK000655F] | 98.2%
24 | O=C(COc1ccc(Cl)cc1)NNC(=O)Cc1cccc2ccccc12 [CBK261693] | 91.4%
25 | Cc1c(NC(=S)NCCCN2CCOCC2)c(=O)n(-c2ccccc2)n1C [CBK008032] | 90.7%
26 | CCCCc1ccc(S(=O)(=O)c2cnc(SCC(=O)Nc3ccc(Cl)cc3)[nH]c2=O)cc1 [CBK300539] | 106%
27 | COc1cc(CNS(=O)(=O)c2cc3c(NCCN(C)C)nccc3s2)cc(OC)c1OC [CBK038246C] | 91.8%
28 | Cc1sc2nc(NCCO)nc(O)c2c1C [CBK018257] | 86.9%
29 | O=C(NCC(O)COc1ccccc1)c1cnn2c(-c3ccccc3)ccnc12 (centres unmarked) [CBK298320] | 99%
30 | CC(C)OCc1ccc(C(=O)N2CCC(C(=O)O)CC2)cc1 [CBK297141] | 83.2%
31 | O=C(CN1C(=O)c2ccccc2C1=O)Nc1sc2c(c1C(=O)NCC1CCCO1)CCC2 (centres unmarked) [CBK265583] | 109%
32 | O=C(COc1ccc2oc3c(c2c1)CCCC3)Nc1cccc2cccnc12 [CBK266137] | 101%
33 | CN(C)c1ccc(C(=O)N2CCC(c3cc4cnccc4[nH]3)CC2)cc1 [CBK283446] | 83.8%
34 | CN(CC1CCCCC1)C(=O)c1cc2ccsc2[nH]1 [CBK304518] | 91.4%
35 | COC(=O)C1(Cc2cc(-c3cccc(F)c3)no2)CCOCC1 [CBK285330] | 95.8%
36 | O=C(COc1ccc(S(=O)(=O)NC2CCCC2)cc1)Nc1ccc2c(c1)OCCO2 [CBK266431] | 101%
37 | CN1C2CCC1CC(OC(=O)CCN1CCOCC1)C2 (centres unmarked) [CBK261465] | 97.4%
38 | Cc1cc(=O)cc(C(=O)NC2CCN(c3ncccc3C#N)CC2)o1 [CBK307240] | 86.2%
39 | O=C(c1cncc(-c2[nH]nnc2-c2ccccc2)c1)N1CCCC1 [CBK160360] | 91.7%
40 | O=C(O)COc1ccc(NC(=O)C2CCCO2)cc1 (centres unmarked) [CBK270063] | 102%
41 | O=C(O)C1CCCN(C(=O)COc2cc3oc(=O)cc(-c4ccccc4)c3cc2Cl)C1 (centres unmarked) [CBK286753] | 90.9%
42 | CC(=O)c1ccc(-c2nc(NS(C)(=O)=O)cc3cccnc23)cc1 [CBK061874] | 96.3%
43 | CCN1CCN(C(=O)c2ccc(CN(c3ccc(C)c(C)c3)S(C)(=O)=O)cc2)CC1 [CBK267132] | 92.6%
44 | CCCc1[nH]n(CCc2ccccc2)c(=O)c1Cc1c(Cl)cccc1Cl [CBK112499] | 99.8%

Row | SMILES | viability at 28.5 h, 10 µM
45 | Cc1ccc(S(=O)(=O)c2cncc(N3CCNCC3)n2)cc1 [CBK051166C] | 101%
46 | CN(C)S(=O)(=O)c1ccc(C(=O)C2=C(O)C(=O)N(CCN3CCCCC3)C2c2cccnc2)cc1 (centres unmarked) [CBK264700] | 99.9%
47 | O=C(O)c1cccc(-n2cc(-c3ccc(F)cc3F)nn2)c1 [CBK112998] | 95.9%
48 | COc1ccc(CC(C(=O)Nc2ccc3nc[nH]c(=O)c3c2)c2ccccc2)cc1 (centres unmarked) [CBK285863] | 94.3%
49 | Nc1ncc(-c2ccccc2)nc1NC1CCOCC1 [CBK063748] | 97.3%
50 | NCCCc1c(-c2ccc(Cl)cc2Cl)[nH][nH]c1=O [CBK288367] | 86.8%
51 | OC1(Cn2cnc3ccccc32)CCN(Cc2ccccc2F)CC1 [CBK284662] | 85.3%
52 | COc1ccc(S(=O)(=O)NC[C@H]2C[C@@H]3CC[N@]2C[C@@H]3CN2CCCCC2)cc1 [CBK288764] | 98.9%
53 | CCn1cc(C(=O)N2CCCC2c2nc3ccccc3[nH]2)c(C)n1 (centres unmarked) [CBK283777] | 90.2%
54 | COc1ccc(N)cc1OCc1cn2ccccc2n1 [CBK295609] | 57.2%
55 | CCC1c2ccsc2CCN1CC(O)COCc1ccco1 (centres unmarked) [CBK303992] | 97.3%
56 | O=c1cc(CN2CCC[C@@H]2CN2CCCC2)[nH]c(=O)[nH]1 [CBK149108] | 92.2%
57 | COc1ccc(CN(Cc2ccsc2)[C@@H]2COC[C@H]2c2ccc(F)cc2)cc1 [CBK286485] | 112%
58 | N#CC1CCCc2c1[nH]c1ccc(Cl)cc21 (centres unmarked) [CBK101438] | 63.9%
59 | CSc1nc(O)nc(-c2ccccc2)n1 [CBK086310] | 95.4%
60 | Fc1ccccc1CN(CCCn1ccnc1)CC1CCOC1 (centres unmarked) [CBK283031] | 104%
61 | CCC(C)c1ccccc1NC(=O)c1cc(=O)[nH]c2ccccc12 (centres unmarked) [CBK297516] | 89.6%
62 | CC(Cc1nc(-c2cnn(C)n2)cs1)n1cc(Cl)cn1 (centres unmarked) [CBK304256] | 90.8%
63 | CC1NCCc2c1sc1ccccc21 (centres unmarked) [CBK026032C] | 100%
64 | Cc1nn(CC(=O)N2CCCC(C)C2)c(=O)c2cc3sccc3n12 (centres unmarked) [CBK284046] | 87.7%
65 | CCOC(=O)C1(C)C=C(Nc2cccc(C)c2)C(=O)N1c1ccccc1 (centres unmarked) [CBK263757] | 96.8%
66 | CC1(C)Cc2cccc(OCC(=O)O)c2O1 [CBK270161] | 100%

Row | SMILES | viability at 28.5 h, 10 µM
67 | COc1ccc(-c2ccnc(N[C@H]3CO[C@H]4[C@@H]3OC[C@@H]4NC(=O)c3ccccc3)n2)cc1 [CBK289526] | 83.5%
68 | O=C(O)C1(Oc2ccc3ncccc3c2)CCN(Cc2ccoc2)CC1 [CBK307598] | 90.9%
69 | Nc1ncnc2c1nc1n2[C@@H]2O[C@@H]([C@H](O)C2O)[C@H]1O (some centres unmarked) [CBK201305] | 98.1%
70 | COc1ccc(CN2CCC[C@H]2c2nc(-c3ccc(OC)nc3)no2)c(O)c1 [CBK288898] | 92%
71 | COc1cccc(NC(=O)CC(CN2CCN(c3ccccc3)CC2)C(=O)O)c1 (centres unmarked) [CBK286789] | 90.7%
72 | O=C(O)c1ccc(S(=O)(=O)c2ccc3c(c2)C(=O)N(c2nccs2)C3=O)cc1 [CBK261189] | 90.1%
73 | Cc1ccc(OCc2ccc(Cl)s2)c(Br)c1 [CBK002840] | 79%
74 | O=C(NCc1ccco1)c1cc(Br)cnc1N1CCOCC1 [CBK076268] | 94.6%
75 | Cn1c(-c2ccccc2)cnc1NC(=O)C1CCN(S(=O)(=O)c2ccc(F)cc2)C1 (centres unmarked) [CBK285709] | 95.6%
76 | COCCn1c(SCc2ccc([N+](=O)[O-])cc2)nc2c([nH]c3ccccc32)c1=O [CBK294415] | 90%
77 | NS(=O)(=O)c1ccc(NC(=O)c2ccc3ccccc3c2)cc1 [CBK264338] | 112%
78 | CC(C)[C@@H](CO)Nc1nc(-c2ccc3ccccc3c2)cn2ccnc12 [CBK037445] | 85.8%
79 | Cc1cccn2c(CN3CCCC(O)C3)c(C(=O)N3CCCCC3)nc12 (centres unmarked) [CBK307342] | 94%
80 | O=C(O)Cn1nc(-c2ccccc2)c2ccccc2c1=O [CBK287249] | 88%
81 | O=C(O)C[C@]1(C(=O)NC2CCCCCC2)CC(c2ccc(Cl)cc2)=NO1 [CBK286716] | 92.3%
82 | CC(C)(C)OC(=O)N1CCC(Oc2ccccc2C#N)C1 (centres unmarked) [CBK003039] | 84.9%
83 | NC(=O)c1cccc(NC(=O)/C=C/C(=O)O)c1 [CBK261678] | 96.8%
84 | CC(C)(CO)CNc1nc(-c2ccc3c(c2)OCO3)cnc1N [CBK063459] | 105%
85 | CCOC(=O)c1cccc(-c2ccc(OC)c(OC)c2)n1 [CBK149247] | 95.4%
86 | COc1ccc(Nc2cc(-c3ccccc3OC)ncn2)cn1 [CBK037176] | 88.9%
87 | O=C1NCCCC12CCN(Cc1cccc(F)c1F)CC2 [CBK284877] | 91.8%

Same assay, conditions: human, hela cells, % viability, bulk resorufin, single well

Row | SMILES | viability at 28.5 h, 10 µM
88 | O=C1NC(=O)C(CCc2ccccn2)(Cc2ccc3c(c2)OCO3)C(=O)N1CCc1ccccc1 (centres unmarked) [CBK266392] | 98.7%
89 | CN(C)c1ccc(C(=O)N2CCC3(CC2)OCc2cc(Cl)ccc2O3)cc1 [CBK061067] | 87.8%
